Columns and labels:
MDCK-II = assay: Antimigratory activity against MDCK2 cells assessed as inhibition of HGF-induced cell scattering at 1 uM pretreated for 18 hrs followed by HGF addition measured after 20 to 24 hrs by crystal violet staining-based assay relative to control; type: functional; settings: Canis lupus familiaris
MCF7 [1] = assay: Antiproliferative activity against human MCF7 cells at 10 uM relative to control; type: functional, cell-based
BT-20 = assay: Antiproliferative activity against human BT20 cells; type: functional
[2] = Antiproliferative activity against human HER218 cells; type: functional
Hs-578T = assay: Antiproliferative activity against human Hs 578T cells; type: functional
MCF7 [3] = assay: Antiproliferative activity against human MCF7 cells; type: functional
MDA-MB-231 = assay: Antiproliferative activity against human MDA-MB-231/ATCC cells; type: functional
MDA-MB-468 = assay: Antiproliferative activity against human MDA-MB-468 cells; type: functional
T47D = assay: Antiproliferative activity against human T47D cells; type: functional
SF-268 = assay: Antiproliferative activity against human SF268 cells; type: functional
SF-539 = assay: Antiproliferative activity against human SF539 cells; type: functional
SF-295 = assay: Antiproliferative activity against human SF295 cells; type: functional
SNB-19 = assay: Antiproliferative activity against human SNB19 cells; type: functional
U-251 = assay: Antiproliferative activity against human U251 cells; type: functional
COLO 205 = assay: Antiproliferative activity against human COLO205 cells; type: functional
HCC 2998 = assay: Antiproliferative activity against human HCC2998 cells; type: functional
HCT-116 = assay: Antiproliferative activity against human HCT116 cells; type: functional
HCT-15 = assay: Antiproliferative activity against human HCT15 cells; type: functional
HT-29 = assay: Antiproliferative activity against human HT-29 cells; type: functional
KM12 = assay: Antiproliferative activity against human KM12 cells; type: functional
SW480 = assay: Antiproliferative activity against human SW480 cells; type: functional
SW-620 = assay: Antiproliferative activity against human SW620 cells; type: functional
AN3-CA = assay: Antiproliferative activity against human AN3CA cells; type: functional
HEC-1-A = assay: Antiproliferative activity against human Hec1A cells; type: functional
MFE-280 = assay: Antiproliferative activity against human MFE280 cells; type: functional
MFE-296 = assay: Antiproliferative activity against human MFE296 cells; type: functional
RL95-2 = assay: Antiproliferative activity against human RL95-2 cells; type: functional
SK-UT-1 = assay: Antiproliferative activity against human SK-UT-1 cells; type: functional
T98G = assay: Antiproliferative activity against human T98G cells; type: functional
U-87 MG = assay: Antiproliferative activity against human U87MG cells; type: functional, U-87MG ATCC
CCRF-CEM = assay: Antiproliferative activity against human CCRF-CEM cells; type: functional
HL-60(TB) = assay: Antiproliferative activity against human HL-60(TB) cells; type: functional
K562 = assay: Antiproliferative activity against human K562 cells; type: functional
MOLT-4 = assay: Antiproliferative activity against human MOLT4 cells; type: functional
RPMI-8226 = assay: Antiproliferative activity against human RPMI8226 cells; type: functional
SR = assay: Antiproliferative activity against human SR cells; type: functional
HepG2 = assay: Antiproliferative activity against human HepG2 cells; type: functional
A549 [4] = assay: Antiproliferative activity against human A549 cells; type: functional
NCI-H1975 = assay: Antiproliferative activity against human NCI-H1975 cells; type: functional
LOX IMVI = assay: Antiproliferative activity against human LOXIMVI cells; type: functional
M14 = assay: Antiproliferative activity against human M14 cells; type: functional
Malme-3M = assay: Antiproliferative activity against human MALME-3M cells; type: functional
MDA-MB-435 = assay: Antiproliferative activity against human MDA-MB-435 cells; type: functional
SK-MEL-2 = assay: Antiproliferative activity against human SK-MEL-2 cells; type: functional
SK-MEL-5 = assay: Antiproliferative activity against human SK-MEL-5 cells; type: functional
UACC-62 = assay: Antiproliferative activity against human UACC62 cells; type: functional
A549 [5] = assay: Antiproliferative activity against human A549/ATCC cells; type: functional
HOP-62 = assay: Antiproliferative activity against human HOP62cells; type: functional
HOP-92 = assay: Antiproliferative activity against human HOP92 cells; type: functional
NCI-H226 = assay: Antiproliferative activity against human NCI-H226 cells; type: functional
NCI-H23 = assay: Antiproliferative activity against human NCI-H23 cells; type: functional
NCI-H322M = assay: Antiproliferative activity against human NCI-H322M cells; type: functional
NCI-H460 = assay: Antiproliferative activity against human NCI-H460 cells; type: functional
NCI-H522 = assay: Antiproliferative activity against human NCI-H522 cells; type: functional
A2780 = assay: Antiproliferative activity against human A2780 cells; type: functional, cell-based
IGROV-1 = assay: Antiproliferative activity against human IGROV1 cells; type: functional
NCI/ADR-RES = assay: Antiproliferative activity against human NCI/ADR-RES cells; type: functional
OVCAR-3 = assay: Antiproliferative activity against human OVCAR3 cells; type: functional
OVCAR-4 = assay: Antiproliferative activity against human OVCAR4 cells; type: functional
OVCAR-5 = assay: Antiproliferative activity against human OVCAR5 cells; type: functional
OVCAR-8 = assay: Antiproliferative activity against human OVCAR8 cells; type: functional
SK-OV-3 = assay: Antiproliferative activity against human SKOV3 cells; type: functional
HPAC = assay: Antiproliferative activity against HPAC; type: functional; settings: Homo sapiens
MIA PaCa-2 = assay: Antiproliferative activity against human MIAPaCa2 cells; type: functional
PANC-1 = assay: Antiproliferative activity against human PANC1 cells; type: functional
CWR22R = assay: Antiproliferative activity against human 22Rv1 cells; type: functional
DU-145 = assay: Antiproliferative activity against human DU145 cells; type: functional
LNCaP = assay: Antiproliferative activity against human LNCAP cells; type: functional
[6] = Antiproliferative activity against human NCI-H660 cells; type: functional
PC-3 = assay: Antiproliferative activity against human PC3 cells; type: functional
VCaP = assay: Antiproliferative activity against human VCaP cells; type: functional
786-0 = assay: Antiproliferative activity against human 786-0 cells; type: functional
A498 = assay: Antiproliferative activity against human A498 cells; type: functional
ACHN = assay: Antiproliferative activity against human ACHN cells; type: functional
CAKI-1 = assay: Antiproliferative activity against human Caki1 cells; type: functional
RXF 393 = assay: Antiproliferative activity against human RXF393 cells; type: functional
SN12C = assay: Antiproliferative activity against human SN12C cells; type: functional
TK-10 = assay: Antiproliferative activity against human TK10 cells; type: functional
UO-31 = assay: Antiproliferative activity against human UO31 cells; type: functional

`O=C(Nc1ccc(-c2ccccc2)cn1)c1cncnc1` showed an inhibition at 1 µM (MDCK-II) of 238%, an EC50 (MCF7 [1]) of 0.074 µM and a GI50 (BT-20) of 0.342 µM. The GI50 [2] was 0.072 µM, the GI50 (Hs-578T) was 0.16 µM and the GI50 (MCF7 [3]) was 0.037 µM. It also gave a GI50 (MDA-MB-231) of 0.256 µM, a GI50 (MDA-MB-468) of 0.029 µM and a GI50 (T47D) of over 10 µM. It also gave a GI50 (SF-268) of 1.02 µM, a GI50 (SF-539) of 0.11 µM and a GI50 (SF-295) of 0.086 µM. It also gave a GI50 (SNB-19) of 0.37 µM, a GI50 (U-251) of 0.113 µM and a GI50 (COLO 205) of 0.047 µM. The GI50 (HCC 2998) was 1.01 µM, the GI50 (HCT-116) was 0.04 µM and the GI50 (HCT-15) was 0.045 µM. It also gave a GI50 (HT-29) of 0.038 µM, a GI50 (KM12) of 0.039 µM and a GI50 (SW480) of 0.046 µM. For the same molecule, the GI50 (SW-620) was 0.043 µM, the GI50 (AN3-CA) was 0.053 µM and the GI50 (HEC-1-A) was 0.178 µM. The GI50 (MFE-280) was over 10 µM, the GI50 (MFE-296) was 0.026 µM and the GI50 (RL95-2) was 0.086 µM. For the same molecule, the GI50 (SK-UT-1) was 0.055 µM, the GI50 (T98G) was 0.153 µM and the GI50 (U-87 MG) was 0.26 µM. The GI50 (CCRF-CEM) was 0.199 µM, the GI50 (HL-60(TB)) was 0.053 µM and the GI50 (K562) was 0.046 µM. For the same molecule, the GI50 (MOLT-4) was 0.297 µM, the GI50 (RPMI-8226) was 0.091 µM and the GI50 (SR) was 0.042 µM. The GI50 (HepG2) was 0.094 µM, the GI50 (A549 [4]) was 0.204 µM and the GI50 (NCI-H1975) was 0.271 µM. The GI50 (LOX IMVI) was 0.121 µM, the GI50 (M14) was 0.044 µM and the GI50 (Malme-3M) was 0.077 µM. The GI50 (MDA-MB-435) was 0.022 µM, the GI50 (SK-MEL-2) was 0.053 µM and the GI50 (SK-MEL-5) was 0.043 µM. It also gave a GI50 (UACC-62) of 0.069 µM, a GI50 (A549 [5]) of 0.061 µM and a GI50 (HOP-62) of over 10 µM. It also gave a GI50 (HOP-92) of 0.096 µM, a GI50 (NCI-H226) of 0.613 µM and a GI50 (NCI-H23) of 0.66 µM. For the same molecule, the GI50 (NCI-H322M) was 0.512 µM, the GI50 (NCI-H460) was 0.041 µM and the GI50 (NCI-H522) was 0.034 µM. It also gave an EC50 (A2780) of 0.074 µM, a GI50 (A2780) of 0.04 µM and a GI50 (IGROV-1) of 0.869 µM. It also gave a GI50 (NCI/ADR-RES) of 0.04 µM, a GI50 (OVCAR-3) of 0.047 µM and a GI50 (OVCAR-4) of over 10 µM. The GI50 (OVCAR-5) was 0.605 µM, the GI50 (OVCAR-8) was 0.24 µM and the GI50 (SK-OV-3) was 0.315 µM. For the same molecule, the GI50 (HPAC) was 0.154 µM, the GI50 (MIA PaCa-2) was 0.194 µM and the GI50 (PANC-1) was 0.212 µM. For the same molecule, the GI50 (CWR22R) was 0.15 µM, the GI50 (DU-145) was 0.305 µM and the GI50 (LNCaP) was 0.361 µM. For the same molecule, the GI50 [6] was 0.135 µM, the GI50 (PC-3) was 0.118 µM and the GI50 (VCaP) was 0.246 µM. The GI50 (786-0) was 0.591 µM, the GI50 (A498) was 0.048 µM and the GI50 (ACHN) was 0.271 µM. It also gave a GI50 (CAKI-1) of 0.091 µM, a GI50 (RXF 393) of 0.124 µM and a GI50 (SN12C) of 0.155 µM. The GI50 (TK-10) was 0.317 µM and the GI50 (UO-31) was 2.11 µM.

— ChEMBL document CHEMBL4043145, “Pyridine-pyrimidine amides that prevent HGF-induced epithelial scattering by two distinct mechanisms” (Bioorg Med Chem Lett, 2017)
